ChEMBL document CHEMBL3885861, “Open TG-GATES”

Species: Rattus norvegicus
Assay: Open TG-GATES - Regimen: Daily Repeat
Format: toxicity, organism-based, Sprague-Dawley
Design: regimen Daily Repeat, gender Male, age 6 weeks
Settings: in vivo, po, 300 mg/kg, route gavage, dose level Middle; for APTT / Bas / Eos / Fbg / Hb / Ht / Lym / MCH / MCHC / MCV / Mono / Neu / PT / Plat / RBC / Ret / WBC: tissue Blood
[1] = 72 h, tissue Kidney, time 3 day
[2] = 72 h, tissue Plasma, time 3 day

## C[C@H]1O[C@H](O[C@H]2[C@H](O)[C@@H](O)[C@@H](O[C@H]3[C@H](O)[C@@H](O)C(O)O[C@@H]3CO)O[C@@H]2CO)[C@H](O)[C@@H](O)[C@@H]1N[C@H]1C=C(CO)[C@@H](O)[C@H](O)[C@H]1O (stereo partly specified) [ACARBOSE]
72 h, time 3 day
  TERMINAL_BW: 230.6 g
  APTT: 16.3 s
  Bas: 0.2%
  Eos: 1%
  Fbg: 299.4 mg/dL
  Hb: 13.6 g/dL
  Ht: 41%
  Lym: 76.6%
  MCH: 21 pg
  MCHC: 33.3%
  MCV: 63 fL
  Mono: 3%
  Neu: 18.4%
  PT: 13 s
  Plat: 120.6 x10_4/uL
  RBC: 650.8 x10_4/ul
  Ret: 7.2%
  WBC: 104.1 x10_2/uL
[1]
  KIDNEY_L: 1.1 g
  KIDNEY_R: 1.1 g
  KIDNEY_TOTAL: 2.1 g
72 h, tissue Liver, time 3 day
  LIVER: 11.2 g
[2]
  A/G: 0.9
  ALP: 1565.8 IU/L
  ALT: 39.4 IU/L
  AST: 67.2 IU/L
  BUN: 12.6 mg/dL
  CRE: 0.2 mg/dL
  Ca: 10.7 mg/dL
  Cl: 103 meq/L
  DBIL: 0.01 mg/dL
  GLC: 170.8 mg/dL
  IP: 8.2 mg/dL
  K: 3.9 meq/L
  LDH: 89.6 IU/L
  Na: 140.4 meq/L
  PL: 148.4 mg/dL
  RALB: 2.6 g/dL
  TBIL: 0.06 mg/dL
  TC: 81 mg/dL
  TG: 98 mg/dL
  TP: 5.5 g/dL
  gamma-GTP: 1.2 IU/L
[…], time 7 day
  TERMINAL_BW: 272.1 g
  APTT: 17.2 s
  Bas: 0%
  Eos: 1%
  Fbg: 323 mg/dL
  Hb: 14.1 g/dL
  Ht: 41.7%
  Lym: 74.6%
  MCH: 21.1 pg
  MCHC: 33.8%
  MCV: 62.4 fL
  Mono: 2.6%
  Neu: 21%
  PT: 13.1 s
  Plat: 128.3 x10_4/uL
  RBC: 669.4 x10_4/ul
  Ret: 6.1%
  WBC: 95.8 x10_2/uL
[…], time 14 day
  TERMINAL_BW: 332.7 g
  APTT: 23.4 s
  Bas: 0%
  Eos: 0.8%
  Fbg: 272.2 mg/dL
  Hb: 14.8 g/dL
  Ht: 44%
  Lym: 78.8%
  MCH: 21 pg
  MCHC: 33.7%
  MCV: 62.2 fL
  Mono: 2%
  Neu: 17.8%
  PT: 13.2 s
  Plat: 126.6 x10_4/uL
  RBC: 706.8 x10_4/ul
  Ret: 5%
  WBC: 105.8 x10_2/uL
[…], time 28 day
  TERMINAL_BW: 401.7 g
  APTT: 20.2 s
  Bas: 0%
  Eos: 1%
  Fbg: 282.8 mg/dL
  Hb: 15.3 g/dL
  Ht: 44.4%
